Key:
C. reinhardtii CC-1928 = test: Effect of copper on activity of hydrazones: in vitro growth inhibition of C. reinhardtii in TAP Cu minus / TAP Cu plus medium (Example 10); format: cell-based, Chlamydomonas reinhardtii; conditions: test compound 1 μg/mL, 48 h; for inhibition of growth at 1 µg/mL: Chlamydomonas reinhardtii, TAP Cu minus medium, read-out: % Inhn. Minus Copper Observed; for % Inhn. Plus Copper Observed: TAP Cu plus medium (CuCl2)
Protocol: In vitro toxicity assays against C. reinhardtii CC-1928 (wild type mt+137c green in dark subclone) obtained from the Chlamydomonas Resource Center at Duke University were conducted using TAP liquid growth medium described by Gorman and Levine Proc. Natl. Acad. Sci. USA 1965, 54, 1665-1669 except that CuSO4.5H2O, normally included as a component of Hutner's trace element stock solution (Hutner et al. Proc. Am. Philos. Soc. 1950, 94, 152-170), was omitted. The TAP medium lacking Cu (TAP Cu minus) was prepared by adding 400 mg NH4Cl, 10 mL of 100× Tris-Acetate (242 g Tris-base and 100 mL glacial acetic acid in 1000 mL milli Q water), and 8.3 mL of 120.5× phosphate buffer (14.34 g K2HPO4 and 7.26 g KH2PO4 in 1000 mL milli Q water) to milli Q water to make a total volume of 1 liter. The medium was treated with 0.5 g Chelex 100 resin (Bio-Rad Analytical grade, 50-100 mesh, sodium form, cat#142-2822) by stirring at room temperature for 1 hour. 900 mL were decanted and 45.9 mg of CaCl2.2H2O, 90 mg of MgSO4.7H2O and 0.9 mL Hutner's trace elements lacking CuSO4.5H2O were added and the solution was filter-sterilized. Medium containing copper (TAP Cu plus) was prepared by adding CuCl2.2H2O to the TAP Cu minus medium at 20 μM. Test compounds were dissolved in dimethylsulfoxide (DMSO) at 2 mg/mL then dilutions in TAP Cu minus and TAP Cu plus media were prepared in sterilized microcentrifuge tubes at 2 μg/mL. 100 μL aliquots of diluted compound were dispensed into flat-bottomed 96-well microtiter plates. C. reinhardtii was maintained under 12 h of light on TAP agar plates at 18° C. A loopful of cells was added to 50 mL of TAP Cu minus medium and the culture incubated with shaking at 200 rpm at 27° C. for 24 h. The culture (10 to 20 mL aliquot) was centrifuged in a bench centrifuge at 2000 rpm for 2 min. The resulting cell pellet was resuspended in 5 mL sterile milli Q water (which had been treated with Chelex 100 resin using 0.5 g resin per liter of water by stirring at room temperature for 1 h), and recentrifuged. The cells were resuspended in TAP Cu minus medium, and the suspension adjusted to 2×10^5 spores per mL. Microtiter plates containing compounds as described above were inoculated with 100 μL of this cell suspension and the plates incubated at 27° C. for 48 h before assessing algal growth by measuring light scattering in a NepheloStar plate-reader. Growth inhibition was determined by comparing growth in the presence of test compound with growth in control wells lacking test compound. Results for growth inhibition by test compounds at 1 μg/mL in TAP Cu plus medium (% Inhn Plus Copper Observed) were compared with predicted values (% Inhn Plus Copper Predicted) that were calculated using the formula set forth by S. R. Colby in Weeds 1967, 15, 20-22 based on results obtained for the same compounds in TAP Cu minus medium (% Inhn Minus Copper Observed). […] Results illustrate that hydrazones and copper produce a synergistic algicidal effect towards C. reinhardtii.

[1] = tested on: Synechocystis sp. strain 6803; test: Effect of copper on activity of hydrazones: in vitro growth inhibition of Synechocystis in BG-11 Cu minus / Cu plus medium (Example 11); format: cell-based; conditions: 72 h; for % Inhn. Plus Copper Observed: BG-11 Cu plus medium
Protocol: In vitro toxicity assays against the cyanobacterium (blue-green alga) Synechocystis sp. strain 6803 were conducted using BG-11 medium except that copper micronutrient, normally included as CuSO4.5H2O, was omitted. The medium, termed BG-11 Cu minus, was prepared by dissolving 1.5 g NaNO3, 40 mg K2HPO4, 6 mg citric acid, 1 mg Na2EDTA and 20 mg Na2CO3 in 1 liter of milli Q water and treating the solution with 0.5 g Chelex 100 resin (Bio-Rad Analytical grade, 50-100 mesh, sodium form, cat#142-2822) by stifling at room temperature for 1 h. 900 mL were decanted and 67.5 mg MgSO4.7H2O, 32.4 mg […], 5.4 mg ferric ammonium citrate and 0.9 mL trace metal mix A5 without copper (2.86 g H3BO3, 1.81 g MnCl2.4H2O, 222 mg ZnSO4.7H2O, 390 mg Na2MoO4.2H2O and Co(NO3)2.6H2O in 1 L Milli Q water) was added. The pH was adjusted to 7.1 and the medium was filter-sterilized. Medium containing copper (BG-11 Cu plus) was prepared by adding CuCl2.2H2O to the BG-11 Cu minus medium at 0.2 μM. Test compounds were dissolved in dimethylsulfoxide (DMSO) at 2 mg/mL then appropriate dilutions in BG-11 Cu minus and BG-11 Cu plus media were prepared in sterilized microcentrifuge tubes. 100 μL aliquots were dispensed into flat-bottomed 96-well microtiter plates. Synechocystis was maintained under 24 h of light on BG-11 agar plates at 27° C. A loopful of cells was added to 50 mL of BG-11 Cu minus growth medium and the culture was incubated with shaking at 200 rpm at 27° C. for 24 h. The culture (10 to 20 mL aliquot) was centrifuged in a bench centrifuge at 2400 rpm for 2 min. The resulting cell pellet was resuspended in 5 mL sterile milli Q water (which had been treated with Chelex 100 resin using 0.5 g resin per liter of water by stirring at room temperature for 1 h), and recentrifuged. The cells were resuspended in BG-11 Cu minus medium, and the suspension adjusted to 4×10^5 spores per mL. Microtiter plates containing compounds as described above were inoculated with 100 μL of this cell suspension and the plates incubated at 27° C. for 72 h before assessing algal growth by measuring light scattering in a NepheloStar plate reader. Growth inhibition was determined by comparing growth in the presence of test compound with growth in control wells lacking test compound. Results for growth inhibition by test compounds in BG-11 Cu plus medium (% Inhn Plus Copper Observed) were compared with predicted values (% Inhn Plus Copper Predicted) that were calculated using the formula set forth by S. R. Colby in Weeds 1967, 15, 20-22 based on-results obtained for the same compounds in BG-11 Cu minus medium (% Inhn Minus Copper Observed) and the inhibition attributed to copper chloride alone, as determined by comparing growth in copper-minus and copper-plus media without any test compound across experiments. Results illustrate that hydrazones and copper produce a synergistic algicidal effect towards Synechocystis.

[2] = Synechocystis, Test Concn. 0.05 μg/mL, BG-11 Cu minus medium, read-out: % Inhn. Minus Copper Observed
[3] = Synechocystis, Test Concn. 0.0125 μg/mL, BG-11 Cu minus medium, read-out: % Inhn. Minus Copper Observed

Compound	inhibition of growth at 1 µg/mL (C. reinhardtii CC-1928) [%]	% Inhn. Plus Copper Observed (C. reinhardtii CC-1928) [%]	inhibition of growth at 0.05 µg/mL [1, 2] [%]	% Inhn. Plus Copper Observed ([1]; Test Concn. 0.05 μg/mL) [%]	melting point [°C]	inhibition of growth at 0.0125 µg/mL [1, 3] [%]	% Inhn. Plus Copper Observed ([1]; Test Concn. 0.0125 μg/mL) [%]	inhibition of growth at 0.00625 µg/mL ([1]; Synechocystis, Test Concn. 0.00625 μg/mL, BG-11 Cu minus medium, read-out: % Inhn. Minus Copper Observed) [%]	% Inhn. Plus Copper Observed ([1]; Test Concn. 0.00625 μg/mL) [%]
Cc1ccc(C(=O)N/N=C/c2cc(C(F)(F)F)cc(Cl)c2O)c(O)c1 [Compound 31]	-1	88	38	92	255 to 257	–	–	–	–
Cc1cccc(C(=O)N/N=C/c2cccc(C(F)(F)F)c2O)c1 [Compound 33]	21	97	29	97	188 to 190	–	–	–	–
O=C(N/N=C/c1cccc(C(F)(F)F)c1O)c1cccc(F)c1 [Compound 34]	8	97	34	91	176 to 180	–	–	–	–
O=C(N/N=C/c1cccc(C(F)(F)F)c1O)c1ccc(Cl)cc1 [Compound 35]	9	97	26	91	215 to 216	–	–	–	–
O=C(N/N=C/c1cccc(C(F)(F)F)c1O)c1ccccc1O [Compound 36]	7	96	–	–	230 to 234	28	87	–	–
Cc1ccc(C(=O)N/N=C/c2cccc(C(F)(F)F)c2O)c(O)c1 [Compound 37]	12	97	–	–	248 to 253	44	88	–	–
Cc1cccc(C(=O)N/N=C/c2ccc(Cl)c(Cl)c2O)c1 [Compound 38]	15	94	49	93	212 to 214	–	–	–	–
O=C(N/N=C/c1ccc(Cl)c(Cl)c1O)c1cccc(F)c1 [Compound 39]	8	91	31	92	215 to 218	–	–	–	–
O=C(N/N=C/c1ccc(Cl)c(Cl)c1O)c1cccc(Cl)c1 [Compound 40]	22	96	–	–	219 to 222	–	–	4	64
Cc1ccc(C(=O)N/N=C/c2ccc(Cl)c(Cl)c2O)c(O)c1 [Compound 41]	28	96	–	–	271 to 278	26	93	–	–
Cc1cccc(C(=O)N/N=C/c2c(Cl)ccc(Cl)c2O)c1 [Compound 42]	10	96	10	94	214 to 216	–	–	–	–
O=C(N/N=C/c1c(Cl)ccc(Cl)c1O)c1ccc(F)cc1 [Compound 43]	9	93	23	95	264 to 267	–	–	–	–
O=C(N/N=C/c1c(Cl)ccc(Cl)c1O)c1cccc(Cl)c1 [Compound 44]	11	94	61	93	232 to 234	–	–	–	–
O=C(N/N=C/c1c(Cl)ccc(Cl)c1O)c1ccccc1O [Compound 46]	0	92	–	–	260 to 262	37	80	–	–
O=C(N/N=C/c1cc(Cl)cc(C(F)(F)F)c1O)c1cccc(Cl)c1 [Compound 47]	-5	77	–	–	228 to 229	24	60	–	–
O=C(N/N=C/c1cc(Cl)cc(C(F)(F)F)c1O)c1ccccc1O [Compound 48]	18	92	32	95	258 to 260	–	–	–	–
Cc1cccc(C(=O)N/N=C/c2cccc(Cl)c2O)c1 [Compound 50]	6	97	-7	95	166 to 169	–	–	–	–
O=C(N/N=C/c1cccc(Cl)c1O)c1cccc(Cl)c1 [Compound 51]	-13	96	17	97	174 to 178	–	–	–	–
O=C(N/N=C/c1cccc(Cl)c1O)c1ccc([N+](=O)[O-])cc1 [Compound 53]	8	88	45	94	284 to 287	–	–	–	–
O=C(N/N=C/c1cccc(Cl)c1O)c1ccccc1O [Compound 54]	-8	75	37	88	266 to 268	–	–	–	–

— patent US8906829B2, “Synergistic algicidal compositions including hydrazone derivatives and copper” (Dow AgroSciences LLC, priority 2010, dated 2014)
